≈ marks a conversion by molar mass, not a printed value. One block for each compound: values may come before it. Calls of active or inactive are those of the source. The rule behind the calls is not given here.
Columns and labels:
[1] = Stability of the compound; format: physicochemical
[2] = Drug level assessed as Staphylococcus saprophyticus ATCC 15305 nitroreductase B mediated compound formation using 130 uM NO2-SMX measured after 200 mins in presence of NADPH-cofactor generating system by LC-MS/MS analysis; format: ADME; conditions: isolated protein
[3] = system: Staphylococcus saprophyticus; assay: Antibacterial activity against Staphylococcus saprophyticus ATCC 15305 assessed as zone of inhibition at 54 ug/disc measured after 16 to 24 hrs by agar diffusion method; format: functional; conditions: read-out: DIZ
[4] = system: Staphylococcus saprophyticus; assay: Antibacterial activity against Staphylococcus saprophyticus ATCC 15305 measured after 18 hrs by broth dilution method; format: functional; conditions: ATCC 15305, 18 h
[5] = system: Staphylococcus saprophyticus; assay: Antibacterial activity against Staphylococcus saprophyticus ATCC 15305 measured after 18 hrs by agar dilution method; format: functional; conditions: ATCC 15305, 18 h
[6] = system: Staphylococcus saprophyticus; assay: Antibacterial activity against Staphylococcus saprophyticus ATCC 15305 assessed as zone of inhibition at 57 ug/disc measured after 16 to 24 hrs by agar diffusion method; format: functional
[7] = Prodrug activation assessed as Staphylococcus saprophyticus ATCC 15305 nitroreductase B mediated N-OH-sulfamethoxazole formation at 2 mM in presence of NADPH-cofactor generating system by ESI-MS analysis; conditions: isolated protein, 2000 µM
[8] = Prodrug activation assessed as Staphylococcus saprophyticus ATCC 15305 nitroreductase B mediated […] at 130 uM measured after 200 mins in presence of NADPH-cofactor generating system by LC-MS/MS analysis; conditions: isolated protein
[9] = Prodrug activation assessed as Staphylococcus saprophyticus ATCC 15305 nitroreductase B mediated sulfamethoxazole formation at 130 uM measured after 200 mins in presence of NADPH-cofactor generating system by LC-MS/MS analysis; conditions: isolated protein
[10] = Prodrug activation assessed as Staphylococcus saprophyticus ATCC 15305 nitroreductase B mediated […] at 2 mM in presence of NADPH-cofactor generating system by ESI-MS analysis; conditions: isolated protein, 2000 µM
[11] = Prodrug activation assessed as Staphylococcus saprophyticus ATCC 15305 nitroreductase B mediated sulfamethoxazole formation at 2 mM in presence of NADPH-cofactor generating system by ESI-MS analysis; conditions: isolated protein, 2000 µM
[12] = Drug level assessed as Staphylococcus saprophyticus ATCC 15305 nitroreductase B mediated compound formation using at 2 mM NO2-SMX 2 mM in presence of NADPH-cofactor generating system by ESI-MS analysis; format: ADME; conditions: isolated protein, 2000 µM
[13] = system: Staphylococcus saprophyticus; assay: Activity at Staphylococcus saprophyticus ATCC 15305 nitroreductase B by UV-vis spectrophotometry based Michaelis-Menten plot analsysis
[14] = Prodrug activation assessed as Staphylococcus saprophyticus ATCC 15305 nitroreductase B mediated N-OH-sulfamethoxazole formation at 130 uM measured after 200 mins in presence of NADPH-cofactor generating system by LC-MS/MS analysis; conditions: isolated protein
[15] = system: Staphylococcus saprophyticus; assay: Antibacterial activity against Staphylococcus saprophyticus ATCC 15305 assessed as bacterial survival measured after 18 hrs by broth dilution method; format: functional
[16] = system: Staphylococcus saprophyticus; assay: Antibacterial activity against Staphylococcus saprophyticus ATCC 15305 assessed as zone of inhibition at 51 ug/disc measured after 16 to 24 hrs by agar diffusion method; format: functional; conditions: read-out: DIZ
[17] = system: Staphylococcus saprophyticus; assay: microbe, parasite or virus in culture; conditions: ATCC 15305, read-out: DIZ
Description: Antibacterial activity against Staphylococcus saprophyticus ATCC 15305 assessed as zone of inhibition at 300 ug/disc measured after 16 to 24 hrs by agar diffusion method

Stability [1]: Unstable
Drug metabolism [2]: metabolite_detected
Compound: Cc1cc(NS(=O)(=O)c2ccc(N=O)cc2)no1

Drug metabolism [2]: metabolite_detected
MIC [4]: 2050 µg/mL (≈ 7.61 mM)
Compound: Cc1cc(NS(=O)(=O)c2ccc(NO)cc2)no1
zone of inhibition at 54 µg/disc [3]: 10 mm

MIC [5]: 128 µg/mL (≈ 0.646 mM)
MIC [4]: 32 µg/mL (≈ 0.162 mM)
Compound: NC(=O)N/N=C/c1ccc([N+](=O)[O-])o1 [NITROFURAZONE]

The next lines start with the compound.

Compound: Cc1cc(NS(=O)(=O)c2ccc([N+](=O)[O-])cc2)no1
diameter of the inhibition zone (DIZ) [6]: inactive
Drug metabolism [7]: metabolite_detected
Drug metabolism [8]: metabolite_detected
Drug metabolism [9]: metabolite_detected
Drug metabolism [10]: metabolite_detected
Drug metabolism [11]: metabolite_notdetected
Drug metabolism [12]: metabolite_detected
Km [13]: 92.6 µM
kcat [13]: 2.95 s⁻¹
MIC [5]: 2050 µg/mL (≈ 7.23 mM)
Drug metabolism [14]: metabolite_detected
MIC [4]: 2050 µg/mL (≈ 7.23 mM)

Compound: Cc1cc(NS(=O)(=O)c2ccc(N)cc2)no1 [SULFAMETHOXAZOLE]
Drug metabolism [2]: metabolite_detected
Activity [15]: 12%
zone of inhibition at 51 µg/disc [16]: 16 mm
MIC [5]: 2050 µg/mL (≈ 8.09 mM)
MIC [4]: 4100 µg/mL (≈ 16.2 mM)

Compound: O=C1CN(/N=C/c2ccc([N+](=O)[O-])o2)C(=O)N1 [NITROFURANTOIN]
zone of inhibition at 300 µg/disc [17]: 18 mm
MIC [5]: 8 µg/mL (≈ 0.0336 mM)
MIC [4]: 8 µg/mL (≈ 0.0336 mM)

Source: ChEMBL document CHEMBL3826959, “Modification of existing antibiotics in the form of precursor prodrugs that can be subsequently activated by nitroreductases of the target pathogen” (Bioorg Med Chem Lett, 2016)
